From the NIST ThermoML archive (doi:10.1016/j.fluid.2018.01.025)

Experiment: xn = mol fraction of the nth substance listed
Details: 101 kPa, Liquid; for speed of sound: Frequency=2 MHz, Linear variable-path acoustic interferometer; for mass density: Vibrating tube method

CNc1ccccc1 [N-methylaniline] + OCc1ccccc1
Details	mass density, 303.15 K [kg/m3]	mass density, 308.15 K [kg/m3]	mass density, 313.15 K [kg/m3]	mass density, 318.15 K [kg/m3]	mass density, 323.15 K [kg/m3]	speed of sound, 303.15 K [m/s]	speed of sound, 313.15 K [m/s]
x2 = 0.1044	987.67	980.39	976.87	971.88	967.24	1545	1507.9
x2 = 0.2078	993.53	986.48	982.82	977.93	973.34	1540.9	1505.2
x2 = 0.3102	999.29	992.49	988.73	983.96	979.41	1537.1	1502.6
x2 = 0.4116	1004.92	998.45	994.6	989.97	985.5	1533.3	1500.1
x2 = 0.512	1010.45	1004.34	1000.43	995.91	991.54	1529.6	1497.7
x2 = 0.6115	1015.9	1010.22	1006.25	1001.87	997.59	1526.1	1495.3
x2 = 0.71	1021.26	1016.06	1012.02	1007.8	1003.64	1522.5	1493
x2 = 0.8076	1026.57	1021.85	1017.82	1013.73	1009.68	1518.8	1490.8
x2 = 0.9042	1031.88	1027.64	1023.58	1019.63	1015.72	1515.3	1488.7

CN(C)c1ccccc1 [N,N-dimethylaniline] + OCc1ccccc1
Details	mass density, 303.15 K [kg/m3]	mass density, 308.15 K [kg/m3]	mass density, 313.15 K [kg/m3]	mass density, 318.15 K [kg/m3]	mass density, 323.15 K [kg/m3]	speed of sound, 303.15 K [m/s]	speed of sound, 313.15 K [m/s]
x2 = 0.12	957.18	952.61	948.78	944.35	940.48	1475.2	1438
x2 = 0.2348	966.14	961.64	957.75	953.35	949.47	1480.2	1443.8
x2 = 0.3447	974.99	970.58	966.64	962.3	958.43	1484.8	1449.3
x2 = 0.4501	983.81	979.48	975.5	971.22	967.35	1489.2	1454.8
x2 = 0.5511	992.59	988.35	984.36	980.15	976.28	1493.5	1460.3
x2 = 0.6481	1001.4	997.24	993.26	989.1	985.25	1497.6	1465.7
x2 = 0.7412	1010.24	1006.19	1002.16	998.09	994.24	1501.5	1471.1
x2 = 0.8308	1019.15	1015.2	1011.16	1007.16	1003.34	1505.1	1476.4
x2 = 0.917	1028.12	1024.28	1020.19	1016.31	1012.49	1508.5	1481.7
